From PubChem BioAssay (NCI) come the findings set out here.

Test systems include A549 NSCLC; HL-60(TB) leukemia; HT29 colon; RPMI-8226 leukemia; SF-295 CNS; SK-MEL-28 melanoma; SNB-19 CNS; SNB-75 CNS; SW-620 colon; U251 CNS; UACC-62 melanoma; HCC-2998 colon; OVCAR-3 ovarian; SK-MEL-2 melanoma; MDA-MB-231 breast; NCI/ADR-RES ovarian.
Common to all, as to assay: NCI anticancer screen, dose series, 48 h

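Cells were grown in 96-well plates and exposed to each compound for 48 hours at five concentrations; endpoints were interpolated linearly between bracketing concentrations, or set to the highest concentration if not reached. TGI: total growth inhibition.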 A value given as a limit tells only on which side of the number the result lay.

`CC1(C)OC2C(O1)[C@H]1OC(C(Cl)(Cl)Cl)=N[C@H]1C(I)[C@H]2N1C(=O)c2ccccc2C1=O` (stereo not given in full): the TGI is 97.5 µM in the assay on A549 NSCLC; 44.4 µM in the assay on HL-60(TB) leukemia; over 100 µM in the assay on HT29 colon; over 100 µM in the assay with RPMI-8226 leukemia; over 100 µM in the assay with SF-295 CNS; over 100 µM with SK-MEL-28 melanoma. Besides, the TGI in the assay on SNB-19 CNS, in the assay with SNB-75 CNS, in the assay on SW-620 colon, in the assay on U251 CNS and in the assay with UACC-62 melanoma was over 100 µM throughout.

On to `CCOC(=O)/C(=C/c1ccccc1)N(CC)CC`, for which the TGI with A549 NSCLC, in the assay with HCC-2998 colon, in the assay with HL-60(TB) leukemia, in the assay on HT29 colon, in the assay on OVCAR-3 ovarian and in the assay with RPMI-8226 leukemia was over 100 µM each time. For the same compound, the TGI in the assay with SF-295 CNS, in the assay with SK-MEL-2 melanoma, with SK-MEL-28 melanoma, in the assay with SNB-19 CNS, with SW-620 colon and in the assay on U251 CNS was over 100 µM each time. Further, in the assay with UACC-62 melanoma, the TGI is over 100 µM.

`CCOc1cc2cnc3c4cc(OC)c(OC)cc4ccc3c2cc1OC`: the TGI in the assay with A549 NSCLC, in the assay with HCC-2998 colon, with HL-60(TB) leukemia, with HT29 colon, with OVCAR-3 ovarian and in the assay with RPMI-8226 leukemia was over 100 µM in each case. The TGI in the assay with SF-295 CNS, with SK-MEL-2 melanoma, with SK-MEL-28 melanoma, in the assay with SNB-19 CNS, in the assay with SNB-75 CNS and in the assay with SW-620 colon was over 100 µM in each case. Moreover, the TGI in the assay with U251 CNS and in the assay with UACC-62 melanoma was over 100 µM each time.

As to `Cc1ccc(C2SCc3nc4ccccc4n32)cc1` (stereo not given), the TGI in the assay with A549 NSCLC was over 100 µM; in the assay on HCC-2998 colon, over 100 µM; in the assay on HL-60(TB) leukemia, 5.94 µM; with HT29 colon, 79 µM; in the assay with MDA-MB-231 breast, over 100 µM; in the assay with NCI/ADR-RES ovarian, 12.5 µM. The TGI was over 100 µM with OVCAR-3 ovarian; 38.8 µM with RPMI-8226 leukemia; 7.17 µM with SF-295 CNS; 5.56 µM in the assay with SK-MEL-2 melanoma; over 100 µM in the assay with SK-MEL-28 melanoma; over 100 µM with SNB-19 CNS. In addition, the TGI with SNB-75 CNS was 0.0817 µM; in the assay with SW-620 colon, over 100 µM; in the assay with U251 CNS, over 100 µM; in the assay on UACC-62 melanoma, 21.3 µM.

Turning to `COc1cc(CO)cc2c1[nH]c1ccccc12`, the TGI with A549 NSCLC, in the assay with HCC-2998 colon, with HL-60(TB) leukemia, with HT29 colon, in the assay on OVCAR-3 ovarian and in the assay with RPMI-8226 leukemia was over 25 µM in each case. Besides, the TGI in the assay on SK-MEL-2 melanoma, in the assay with SK-MEL-28 melanoma, in the assay on SNB-19 CNS, in the assay with SW-620 colon, in the assay on U251 CNS and in the assay with UACC-62 melanoma was over 25 µM each time.

In the case of `CC1=C(c2ccccc2)CON(c2ccccc2)C1`, the TGI with A549 NSCLC is over 100 µM; in the assay with HCC-2998 colon, over 100 µM; in the assay with HL-60(TB) leukemia it was 76.2 µM; in the assay on HT29 colon it was over 100 µM; with OVCAR-3 ovarian, over 100 µM; in the assay on RPMI-8226 leukemia, over 100 µM. Further, the TGI was over 100 µM in the assay on SF-295 CNS; over 100 µM in the assay with SK-MEL-2 melanoma; 86.2 µM in the assay on SK-MEL-28 melanoma; over 100 µM in the assay with SNB-19 CNS; over 100 µM with SW-620 colon; 69 µM with U251 CNS. Moreover, in the assay with UACC-62 melanoma, the TGI is over 100 µM.

Take `O=C(c1nc2ccc(Cl)cc2[nH]c1=O)C(O)c1ccco1` (stereo not given): the TGI in the assay with A549 NSCLC, in the assay with HCC-2998 colon, in the assay on HL-60(TB) leukemia, in the assay with HT29 colon, in the assay on OVCAR-3 ovarian and with SF-295 CNS was over 100 µM each time. For the same compound, the TGI with SK-MEL-2 melanoma, with SK-MEL-28 melanoma, in the assay with SNB-19 CNS, in the assay with SNB-75 CNS, with SW-620 colon and in the assay with UACC-62 melanoma was over 100 µM throughout.

With `FC(F)(F)c1nc2c(ccc3[nH]c4c(-c5ccccc5)nccc4c32)[nH]1`, the TGI in the assay with A549 NSCLC was over 100 µM; in the assay with HCC-2998 colon, over 100 µM; with HL-60(TB) leukemia, over 100 µM; in the assay on HT29 colon it was over 100 µM; in the assay with OVCAR-3 ovarian, over 100 µM; with RPMI-8226 leukemia, over 64.7 µM. Moreover, the TGI in the assay with SF-295 CNS, in the assay with SK-MEL-2 melanoma, with SK-MEL-28 melanoma, in the assay with SNB-19 CNS, in the assay with SNB-75 CNS and in the assay with SW-620 colon was over 100 µM each time. Moreover, the TGI in the assay on U251 CNS and in the assay with UACC-62 melanoma was over 100 µM each time.

Regarding `CC(=O)NC(CCCCN(Cc1ccccc1)C(=O)N(C)N=O)C(=O)NCc1ccccc1` (stereo not given), the TGI in the assay on A549 NSCLC, in the assay with HCC-2998 colon, with HT29 colon, in the assay on OVCAR-3 ovarian, with RPMI-8226 leukemia and in the assay on SF-295 CNS was over 100 µM in each case. The TGI in the assay on SK-MEL-2 melanoma is over 100 µM; in the assay with SK-MEL-28 melanoma, over 100 µM; with SNB-19 CNS, over 100 µM; in the assay on SNB-75 CNS it was 86.9 µM; in the assay on SW-620 colon it was over 100 µM; in the assay on U251 CNS it was over 100 µM. This compound returned a TGI in the assay on UACC-62 melanoma of over 100 µM.

For `COc1ccc([C@H]2[C@@H]3CCc4ccccc4C3=NN2C(N)=S)cc1OC`, the TGI is over 100 µM with A549 NSCLC; over 100 µM with HCC-2998 colon; 54.8 µM in the assay on HL-60(TB) leukemia; over 100 µM with HT29 colon; over 100 µM with OVCAR-3 ovarian; over 100 µM with RPMI-8226 leukemia. For the same compound, the TGI with SK-MEL-2 melanoma, in the assay with SK-MEL-28 melanoma, with SNB-19 CNS, in the assay with SW-620 colon, in the assay on U251 CNS and with UACC-62 melanoma was over 100 µM each time.
